Assay results reported in patent US8541585B2, “N-acyl cyclic amine derivative or pharmaceutically acceptable salt thereof” (Dainippon Sumitomo Pharma Co., Ltd., priority 2010, dated 2013).

What was measured:
human α1D receptor = target: T1, human α1D receptor (Homo sapiens, UniProt P25100); experiment: Adrenaline α1D receptor binding assay ([3H]-prazosin); conditions: 100 nM test drug, [3H]-prazosin 0.6 nM, human α1D receptor-expressing CHO cell membrane; for inhibition at 0.1 µM: read-out: BINDING INHIBITION RATE (%) α1D 100 nM
T1 construct: expressed in transfected cells; host or cells: CHO cells (membrane preparation)
T1 sequence (P25100 1-572): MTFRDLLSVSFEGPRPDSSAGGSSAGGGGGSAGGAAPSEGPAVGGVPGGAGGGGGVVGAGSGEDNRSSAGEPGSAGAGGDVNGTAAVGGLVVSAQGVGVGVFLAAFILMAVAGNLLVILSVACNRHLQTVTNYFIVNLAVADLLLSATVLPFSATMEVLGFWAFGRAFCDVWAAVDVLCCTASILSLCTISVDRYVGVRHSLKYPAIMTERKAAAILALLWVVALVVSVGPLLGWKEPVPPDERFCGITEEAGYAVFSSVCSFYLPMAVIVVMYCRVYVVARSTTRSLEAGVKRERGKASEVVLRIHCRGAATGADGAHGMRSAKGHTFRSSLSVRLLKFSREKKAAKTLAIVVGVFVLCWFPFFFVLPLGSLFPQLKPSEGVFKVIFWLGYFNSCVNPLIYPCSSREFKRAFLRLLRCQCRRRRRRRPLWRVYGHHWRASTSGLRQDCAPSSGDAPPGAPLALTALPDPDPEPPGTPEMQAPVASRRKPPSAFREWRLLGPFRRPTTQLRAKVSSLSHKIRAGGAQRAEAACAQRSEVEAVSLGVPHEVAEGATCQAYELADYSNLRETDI
Procedure: (4) Adrenaline α1D Receptor Binding Assay
After a reaction in a total volume of 200 μL of 50 mM Tris-HCl (pH=7.6) buffer solution containing 50 μL of [^3H]-prazosin (final concentration 0.6 nM), 1 μL of test drug in DMSO, and 149 μL of human α1D receptor-expressing CHO cell membrane sample, human α1D receptor binding activity of [^3H]-prazosin was measured. The reaction solution let stand for 30 minutes at room temperature, and then it was quickly added on a glass fiber filter plate (Multiscreen FB, Millipore inc.) coated with 0.3% polyethyleneimine (PEI) and filtered under reduced pressure. The glass fiber filter was washed with 200 μL of ice-cooled 50 mM Tris-HCl (pH=7.6) twice, repeatedly filtered under reduced pressure, and then transferred to a vial containing 4 mL of Ecoscint A (National Diagnostics inc.). The residual radioactivity on the glass fiber filter was measured by a liquid scintillation counter. Nonspecific binding was measured in the presence of 1 μM of prazosin, and [^3H]-prazosin binding inhibition rate in the presence of 100 nM of test drug was determined.

human 5-HT2A receptor = target: T2, human 5-HT2A receptor (Homo sapiens, UniProt P28223); experiment: Serotonin 5-HT2A receptor binding assay ([3H]-ketanserin); conditions: [3H]-ketanserin 1 nM, human 5-HT2A receptor-expressing CHO cell membrane; for inhibition at 0.01 µM: 10 nM test drug, read-out: BINDING INHIBITION RATE (%) 5HT2A 10 nM
T2 construct: expressed in transfected cells; host or cells: CHO cells (membrane preparation)
Procedure: (2) Serotonin 5-HT2A Receptor Binding Assay
5-HT2A receptor binding assay was performed in reference to a method described by Hirose et al. (Japan. J. Pharmacol., 53, 321-329, 1990). After a reaction in a total volume of 200 μL of 50 mM Tris-HCl (pH=7.6) buffer solution containing 50 μL of [^3H]-ketanserin (final concentration 1 nM), 1 μL of test drug in DMSO, and 149 μL of human 5-HT2A receptor-expressing CHO cell membrane sample, human 5-HT2A receptor binding activity of [^3H]-ketanserin was measured. The reaction solution let stand for 15 minutes at 37° C., and then it was quickly added on a glass fiber filter plate (Multiscreen FB, Millipore inc.) coated with 0.05% Brij 35 and filtered under reduced pressure. The glass fiber filter was washed with 200 μL of ice-cooled 50 mM Tris-HCl (pH=7.6) twice, repeatedly filtered under reduced pressure, and then transferred to a vial containing 4 mL of Ecoscint A (National Diagnostics inc.). The residual radioactivity on the glass fiber filter was measured by a liquid scintillation counter. Nonspecific binding was measured in the presence of 10 μM of MDL-100907, and [^3H]-ketanserin binding inhibition rate in the presence of 1 nM or 10 nM of test drug was determined.

human 5-HT6 receptor = target: T3, human 5-HT6 receptor (Homo sapiens, UniProt P50406); experiment: Serotonin 5-HT6 receptor binding assay ([3H]-clozapine); conditions: 100 nM test drug, [3H]-clozapine 2 nM, human 5-HT6 receptor-expressing CHO cell membrane; for inhibition at 0.1 µM: read-out: BINDING INHIBITION RATE (%) 5HT6 100 nM
T3 construct: expressed in transfected cells; host or cells: CHO cells (membrane preparation)
Procedure: (3) Serotonin 5-HT6 Receptor Binding Assay
After a reaction in a total volume of 200 μL of 50 mM Tris-HCl (pH=7.6), 4 mM CaCl2, and 0.5 mM EDTA buffer solution containing 50 μL of [^3H]-clozapine (final concentration 2 nM), 1 μL of test drug in DMSO, and 149 μL of human 5-HT6 receptor-expressing CHO cell membrane sample, human 5-HT6 receptor binding activity of [^3H]-clozapine was measured. The reaction solution let stand for 40 minutes at room temperature, and then it was quickly added on a glass fiber filter plate (Multiscreen FB, Millipore inc.) coated with 0.3% polyethyleneimine (PEI) and filtered under reduced pressure. The glass fiber filter was washed with 200 μL of ice-cooled 50 mM Tris-HCl (pH=7.6) twice, repeatedly filtered under reduced pressure, and then transferred to a vial containing 4 mL of Ecoscint A (National Diagnostics inc.). The residual radioactivity on the glass fiber filter was measured by a liquid scintillation counter. Nonspecific binding was measured in the presence of 10 μM of SB-258585, and [^3H]-clozapine binding inhibition rate in the presence of 100 nM of test drug was determined.

human D2L receptor = human D2L receptor (Homo sapiens, UniProt P14416); experiment: Dopamine D2L receptor binding assay ([3H]-spiperone); conditions: 10 nM test drug, [3H]-spiperone 0.5 nM, human D2L receptor-expressing CHO cell membrane; for inhibition at 0.01 µM: read-out: BINDING INHIBITION RATE (%) D2L 10 nM
Procedure: (1) Dopamine D2L Receptor Binding Assay
D2L receptor binding assay was performed in reference to a method described by Hirose et al. (Japan. J. Pharmacol., 53, 321-329, 1990). After a reaction in a total volume of 200 μL of 50 mM Tris-HCl (pH=7.6) buffer solution containing 50 μL of [^3H]-spiperone (final concentration 0.5 nM), 1 μL of test drug in DMSO, and 149 μL of human D2L receptor-expressing CHO cell membrane sample, human D2L receptor binding activity of [^3H]-spiperone was measured. The reaction solution let stand for 60 minutes at room temperature, and then it was quickly added on a glass fiber filter plate (Multiscreen FB, Millipore inc.) coated with 0.3% polyethyleneimine (PEI) and filtered under reduced pressure. The glass fiber filter was washed with 200 μL of ice-cooled 50 mM Tris-HCl (pH=7.6) twice, repeatedly filtered under reduced pressure, and then transferred to a vial containing 4 mL of Ecoscint A (National Diagnostics inc.). The residual radioactivity on the glass fiber filter was measured by a liquid scintillation counter. Nonspecific binding was measured in the presence of 10 μM of spiperone, and [^3H]-spiperone binding inhibition rate in the presence of 10 nM of test drug was determined. The larger binding inhibition rate (%) means that test drug has the higher binding affinity for human D2L receptor.

Chain of human D2L receptor (P14416 whole entry): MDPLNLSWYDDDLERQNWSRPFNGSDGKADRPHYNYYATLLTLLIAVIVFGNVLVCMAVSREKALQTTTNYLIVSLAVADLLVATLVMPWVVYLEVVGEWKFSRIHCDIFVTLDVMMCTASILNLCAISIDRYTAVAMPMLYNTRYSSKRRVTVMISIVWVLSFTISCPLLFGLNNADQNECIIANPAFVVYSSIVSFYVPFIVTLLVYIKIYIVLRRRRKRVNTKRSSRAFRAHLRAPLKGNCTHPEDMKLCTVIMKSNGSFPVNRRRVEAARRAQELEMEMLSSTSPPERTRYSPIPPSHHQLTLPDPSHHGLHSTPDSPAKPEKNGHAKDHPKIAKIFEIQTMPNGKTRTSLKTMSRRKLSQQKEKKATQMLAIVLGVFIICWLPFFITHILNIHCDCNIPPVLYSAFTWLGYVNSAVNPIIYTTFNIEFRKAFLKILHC
T2 sequence (P28223 whole entry): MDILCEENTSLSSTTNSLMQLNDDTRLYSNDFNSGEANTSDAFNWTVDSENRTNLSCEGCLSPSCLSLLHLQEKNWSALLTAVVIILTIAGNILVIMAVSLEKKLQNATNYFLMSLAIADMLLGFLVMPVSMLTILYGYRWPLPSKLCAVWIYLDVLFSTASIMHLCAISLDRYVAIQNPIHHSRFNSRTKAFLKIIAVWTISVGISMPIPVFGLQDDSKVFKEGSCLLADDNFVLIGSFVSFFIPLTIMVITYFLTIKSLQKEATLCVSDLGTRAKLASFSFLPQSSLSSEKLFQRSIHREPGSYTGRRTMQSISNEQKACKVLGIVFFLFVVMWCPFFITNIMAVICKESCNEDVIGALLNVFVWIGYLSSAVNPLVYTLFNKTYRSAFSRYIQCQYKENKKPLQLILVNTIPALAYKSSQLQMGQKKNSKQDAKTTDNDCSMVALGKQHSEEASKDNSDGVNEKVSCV
T3 sequence (P50406 whole entry): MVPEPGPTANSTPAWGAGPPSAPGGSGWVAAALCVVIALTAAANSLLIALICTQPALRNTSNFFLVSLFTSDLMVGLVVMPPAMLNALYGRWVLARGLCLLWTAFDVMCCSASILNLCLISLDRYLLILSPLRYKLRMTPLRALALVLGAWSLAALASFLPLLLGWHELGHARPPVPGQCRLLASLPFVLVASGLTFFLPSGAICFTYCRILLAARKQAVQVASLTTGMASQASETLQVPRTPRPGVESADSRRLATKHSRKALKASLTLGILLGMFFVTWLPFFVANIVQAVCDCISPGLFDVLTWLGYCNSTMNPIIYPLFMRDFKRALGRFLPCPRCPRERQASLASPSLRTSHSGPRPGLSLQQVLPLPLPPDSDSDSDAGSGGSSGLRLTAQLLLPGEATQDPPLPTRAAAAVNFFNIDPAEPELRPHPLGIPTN

Compound | inhibition at 0.1 µM (human α1D receptor) [%] | inhibition at 0.001 µM (human 5-HT2A receptor; 1 nM test drug, read-out: BINDING INHIBITION RATE (%) 5HT2A 1 nM) [%] | inhibition at 0.1 µM (human 5-HT6 receptor) [%] | inhibition at 0.01 µM (human D2L receptor) [%] | inhibition at 0.01 µM (human 5-HT2A receptor) [%] | BINDING INHIBITION RATE (%) α1D 100 nM (human α1D receptor) [%] | BINDING INHIBITION RATE (%) 5HT6 100 nM (human 5-HT6 receptor) [%] | BINDING INHIBITION RATE (%) D2L 10 nM (human D2L receptor) [%]
Cc1ccc2cc(C(=O)N3CCC[C@H]3CCN3CCC(C(=O)c4ccc(F)cc4)CC3)[nH]c2c1 [Example 1, (S)-(2-(2-(4-(4-Fluorobenzoyl)piperidin-1-yl)ethyl)pyrrolidin-1-yl)(6-methyl-1H-indol-2-yl)methanone] | 68 | 73 | 96 | 91 |  |  |  | 
O=C(/C=C/c1ccc2c(c1)OCO2)N1CCC[C@H](CCN2CCC(c3noc4cc(F)ccc34)CC2)C1 [Example 14] | 89 |  | 92 | 75 |  |  |  | 
O=C(c1cc2ccc(F)cc2[nH]1)N1CCC[C@H](CN2CCN(c3n[nH]c4ccccc34)CC2)C1 [Example 22] |  |  | 85 | 26 |  |  |  | 
Cc1ccc2cc(C(=O)N3CCC[C@H]3CCN3CCN(c4n[nH]c5cc(F)ccc45)CC3)[nH]c2c1 [Example 24] | 64 |  | 98 | 88 |  |  |  | 
Cc1ccc2cc(C(=O)N3CCC[C@H]3CCN3CCN(c4n[nH]c5ccc(F)cc45)CC3)[nH]c2c1 [Example 25] |  |  | 82 | 28 |  |  |  | 
COc1ccc2[nH]c(C(=O)N3CCCC[C@H]3CCN3CCC(c4coc5cc(F)ccc45)CC3)cc2c1 [Example 30] |  |  | 65 | 92 | 95 |  |  | 
CCOCCO[C@@H]1C[C@@H](CCN2CCC(c3c[nH]c4ccccc34)CC2)N(C(=O)c2cc3ccc(OC)cc3[nH]2)C1 [Example 37] |  |  | 78 | 0 | 91 |  |  | 
O=C(c1cc2cc(O)ccc2[nH]1)N1CCOC[C@H]1CCN1CCC(c2c[nH]c3ccccc23)CC1 [Example 41] | 81 |  | 78 | 85 |  |  |  | 
O=C(c1ccc(F)cc1)C1CCN(CC[C@@H]2CCCN2C(=O)c2[nH]c3ccccc3c2-c2ccccc2)CC1 [Example 47] | 85 |  | 94 | 72 |  |  |  | 
O=C(c1ccc(F)cc1)C1CCN(CC[C@@H]2CCCN2C(=O)c2cc3ccccc3n2C2CCOCC2)CC1 [Example 48] | 40 |  | 97 | 82 |  |  |  | 
O=C(c1ccc(F)cc1)C1CCN(CC[C@@H]2CCCN2C(=O)c2cc3ccccc3n2-c2ccncc2)CC1 [Example 49] | 30 |  | 75 | 83 |  |  |  | 
Cc1ccc2cc(C(=O)N3C[C@H](F)C[C@H]3CCN3CCC(C(=O)c4ccc(F)cc4)CC3)[nH]c2c1 [Example 53] | 48 |  | 94 | 89 |  |  |  | 
N#CCCc1ccc2c(Cl)c(C(=O)N3CCC[C@H]3CCN3CCC(C(=O)c4ccc(F)cc4)CC3)[nH]c2c1 [Example 55] |  |  | 100 | 83 |  |  |  | 
O=C(c1cccc(-c2ccccc2)c1)N1CCC[C@@H](CCN2CCN(c3nsc4ccccc34)CC2)C1 [Example 57] | 76 |  | 86 | 69 |  |  |  | 
CC(=O)Nc1cccc2cc(C(=O)N3CCC[C@H]3CCN3CCC(C(=O)c4ccc(F)cc4)CC3)n(C)c12 [Example 63] |  |  | 17 | 0 |  |  |  | 
Cc1ccc2cc(C(=O)N3[C@H](CCN4CCC(C(=O)c5ccc(F)cc5)CC4)CC[C@@H]3C)[nH]c2c1 [Example 166, ((2S,5S)-2-(2-(4-(4-Fluorobenzoyl)piperidin-1-yl)ethyl)-5-methylpyrrolidin-1-yl)(6-methyl-1H-indol-2-yl)methanone] | 62 |  | 97 | 88 |  |  |  | 
C[C@H]1CC[C@@H](CCN2CCC(C(=O)c3ccc(F)cc3)CC2)N1C(=O)c1cc2ccc(C(F)(F)F)cc2[nH]1 [Example 167, ((2S,5S)-2-(2-(4-(4-Fluorobenzoyl)piperidin-1-yl)ethyl)-5-methylpyrrolidin-1-yl)(6-(trifluoromethyl)-1H-indol-2-yl)methanone] | 33 |  | 95 | 75 |  |  |  | 
C[C@H]1CC[C@@H](CCN2CCC(C(=O)c3ccc(F)cc3)CC2)N1C(=O)c1cc2ccc(SC(F)(F)F)cc2[nH]1 [Example 168, ((2S,5S)-2-(2-(4-(4-Fluorobenzoyl)piperidin-1-yl)ethyl)-5-methylpyrrolidin-1-yl)(6-(trifluoromethylthio)-1H-indol-2-yl)methanone] | 61 |  | 94 | 81 |  |  |  | 
(S)-(2-(2-(4-(6-Fluorobenzo[d]isoxazol-3-yl)piperidin-1-yl)ethyl)pyrrolidin-1-yl)(3-phenyl-1H-pyrazol-5-yl)methanone hydrochloride [Example 170] |  |  |  |  |  | 83 | 95 | 87
